Entries after “also recorded” stand apart in the source; their conditions may differ. Read-outs that look alike come from different tables or passages of the source.
Key:
TSSK1 = biological target: T1, TSSK1 (Homo sapiens, UniProt Q9BXA7); assay: Radioactivity-based enzymatic kinase panel; settings: read-out: Inhibition of kinase activity
T1 sequence (Q9BXA7 1-367): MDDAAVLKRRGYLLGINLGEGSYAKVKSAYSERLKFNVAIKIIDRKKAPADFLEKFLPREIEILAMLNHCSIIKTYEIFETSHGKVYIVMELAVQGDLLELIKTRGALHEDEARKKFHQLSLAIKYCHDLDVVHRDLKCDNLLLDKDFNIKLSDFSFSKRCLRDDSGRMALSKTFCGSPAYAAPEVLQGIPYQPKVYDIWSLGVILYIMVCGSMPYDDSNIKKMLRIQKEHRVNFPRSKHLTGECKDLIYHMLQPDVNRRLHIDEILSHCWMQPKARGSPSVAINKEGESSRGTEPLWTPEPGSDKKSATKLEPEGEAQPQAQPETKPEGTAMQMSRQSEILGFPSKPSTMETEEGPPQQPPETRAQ

endogenous LRRK2 = endogenous LRRK2 (Mus musculus, UniProt Q5S006); type: in vivo
CHK2 = CHK2 (Homo sapiens, UniProt O96017); assay: Radioactivity-based enzymatic kinase panel; settings: read-out: Inhibition of kinase activity
PHKã1(PBK) = PHKã1(PBK) (Homo sapiens, UniProt Q16816); assay: Radioactivity-based enzymatic kinase panel; settings: read-out: Inhibition of kinase activity
GFP-LRRK2[A2016T] = GFP-LRRK2[A2016T] (Homo sapiens, UniProt Q5S007, A2016T); type: cell-based; settings: HEK293, LRRK2[A2016T], 90 min
CAMKKβ = CAMKKβ (Homo sapiens, UniProt Q96RR4); assay: Radioactivity-based enzymatic kinase panel; settings: read-out: Inhibition of kinase activity
NUAK1 = biological target: T2, NUAK1 (Homo sapiens, UniProt O60285); assay: Radioactivity-based enzymatic kinase panel; settings: read-out: Inhibition of kinase activity
T2 sequence (O60285 1-661): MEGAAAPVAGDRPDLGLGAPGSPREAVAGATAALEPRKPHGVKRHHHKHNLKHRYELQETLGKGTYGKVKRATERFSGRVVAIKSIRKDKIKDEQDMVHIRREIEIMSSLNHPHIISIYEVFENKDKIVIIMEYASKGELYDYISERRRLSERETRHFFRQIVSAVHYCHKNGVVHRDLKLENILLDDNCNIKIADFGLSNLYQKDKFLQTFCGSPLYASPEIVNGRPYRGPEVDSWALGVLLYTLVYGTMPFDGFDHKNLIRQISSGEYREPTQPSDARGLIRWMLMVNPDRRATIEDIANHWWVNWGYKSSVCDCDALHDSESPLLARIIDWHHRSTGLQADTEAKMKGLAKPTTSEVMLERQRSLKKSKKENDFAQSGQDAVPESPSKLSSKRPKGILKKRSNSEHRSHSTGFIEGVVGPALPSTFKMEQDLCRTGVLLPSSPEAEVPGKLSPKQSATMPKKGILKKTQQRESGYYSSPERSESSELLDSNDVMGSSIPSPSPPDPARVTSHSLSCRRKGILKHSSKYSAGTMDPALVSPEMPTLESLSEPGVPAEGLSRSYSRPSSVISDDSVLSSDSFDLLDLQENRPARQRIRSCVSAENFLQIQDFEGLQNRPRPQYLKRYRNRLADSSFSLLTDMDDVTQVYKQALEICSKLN

LRRK2[A2016T] = LRRK2[A2016T] (Homo sapiens, UniProt Q5S007, A2016T); assay: LRRK2 enzymatic assay, A2016T mutant; settings: biochemical, Fig. 1
[1] = cited from earlier work

Chain of endogenous LRRK2 (Q5S006 whole entry): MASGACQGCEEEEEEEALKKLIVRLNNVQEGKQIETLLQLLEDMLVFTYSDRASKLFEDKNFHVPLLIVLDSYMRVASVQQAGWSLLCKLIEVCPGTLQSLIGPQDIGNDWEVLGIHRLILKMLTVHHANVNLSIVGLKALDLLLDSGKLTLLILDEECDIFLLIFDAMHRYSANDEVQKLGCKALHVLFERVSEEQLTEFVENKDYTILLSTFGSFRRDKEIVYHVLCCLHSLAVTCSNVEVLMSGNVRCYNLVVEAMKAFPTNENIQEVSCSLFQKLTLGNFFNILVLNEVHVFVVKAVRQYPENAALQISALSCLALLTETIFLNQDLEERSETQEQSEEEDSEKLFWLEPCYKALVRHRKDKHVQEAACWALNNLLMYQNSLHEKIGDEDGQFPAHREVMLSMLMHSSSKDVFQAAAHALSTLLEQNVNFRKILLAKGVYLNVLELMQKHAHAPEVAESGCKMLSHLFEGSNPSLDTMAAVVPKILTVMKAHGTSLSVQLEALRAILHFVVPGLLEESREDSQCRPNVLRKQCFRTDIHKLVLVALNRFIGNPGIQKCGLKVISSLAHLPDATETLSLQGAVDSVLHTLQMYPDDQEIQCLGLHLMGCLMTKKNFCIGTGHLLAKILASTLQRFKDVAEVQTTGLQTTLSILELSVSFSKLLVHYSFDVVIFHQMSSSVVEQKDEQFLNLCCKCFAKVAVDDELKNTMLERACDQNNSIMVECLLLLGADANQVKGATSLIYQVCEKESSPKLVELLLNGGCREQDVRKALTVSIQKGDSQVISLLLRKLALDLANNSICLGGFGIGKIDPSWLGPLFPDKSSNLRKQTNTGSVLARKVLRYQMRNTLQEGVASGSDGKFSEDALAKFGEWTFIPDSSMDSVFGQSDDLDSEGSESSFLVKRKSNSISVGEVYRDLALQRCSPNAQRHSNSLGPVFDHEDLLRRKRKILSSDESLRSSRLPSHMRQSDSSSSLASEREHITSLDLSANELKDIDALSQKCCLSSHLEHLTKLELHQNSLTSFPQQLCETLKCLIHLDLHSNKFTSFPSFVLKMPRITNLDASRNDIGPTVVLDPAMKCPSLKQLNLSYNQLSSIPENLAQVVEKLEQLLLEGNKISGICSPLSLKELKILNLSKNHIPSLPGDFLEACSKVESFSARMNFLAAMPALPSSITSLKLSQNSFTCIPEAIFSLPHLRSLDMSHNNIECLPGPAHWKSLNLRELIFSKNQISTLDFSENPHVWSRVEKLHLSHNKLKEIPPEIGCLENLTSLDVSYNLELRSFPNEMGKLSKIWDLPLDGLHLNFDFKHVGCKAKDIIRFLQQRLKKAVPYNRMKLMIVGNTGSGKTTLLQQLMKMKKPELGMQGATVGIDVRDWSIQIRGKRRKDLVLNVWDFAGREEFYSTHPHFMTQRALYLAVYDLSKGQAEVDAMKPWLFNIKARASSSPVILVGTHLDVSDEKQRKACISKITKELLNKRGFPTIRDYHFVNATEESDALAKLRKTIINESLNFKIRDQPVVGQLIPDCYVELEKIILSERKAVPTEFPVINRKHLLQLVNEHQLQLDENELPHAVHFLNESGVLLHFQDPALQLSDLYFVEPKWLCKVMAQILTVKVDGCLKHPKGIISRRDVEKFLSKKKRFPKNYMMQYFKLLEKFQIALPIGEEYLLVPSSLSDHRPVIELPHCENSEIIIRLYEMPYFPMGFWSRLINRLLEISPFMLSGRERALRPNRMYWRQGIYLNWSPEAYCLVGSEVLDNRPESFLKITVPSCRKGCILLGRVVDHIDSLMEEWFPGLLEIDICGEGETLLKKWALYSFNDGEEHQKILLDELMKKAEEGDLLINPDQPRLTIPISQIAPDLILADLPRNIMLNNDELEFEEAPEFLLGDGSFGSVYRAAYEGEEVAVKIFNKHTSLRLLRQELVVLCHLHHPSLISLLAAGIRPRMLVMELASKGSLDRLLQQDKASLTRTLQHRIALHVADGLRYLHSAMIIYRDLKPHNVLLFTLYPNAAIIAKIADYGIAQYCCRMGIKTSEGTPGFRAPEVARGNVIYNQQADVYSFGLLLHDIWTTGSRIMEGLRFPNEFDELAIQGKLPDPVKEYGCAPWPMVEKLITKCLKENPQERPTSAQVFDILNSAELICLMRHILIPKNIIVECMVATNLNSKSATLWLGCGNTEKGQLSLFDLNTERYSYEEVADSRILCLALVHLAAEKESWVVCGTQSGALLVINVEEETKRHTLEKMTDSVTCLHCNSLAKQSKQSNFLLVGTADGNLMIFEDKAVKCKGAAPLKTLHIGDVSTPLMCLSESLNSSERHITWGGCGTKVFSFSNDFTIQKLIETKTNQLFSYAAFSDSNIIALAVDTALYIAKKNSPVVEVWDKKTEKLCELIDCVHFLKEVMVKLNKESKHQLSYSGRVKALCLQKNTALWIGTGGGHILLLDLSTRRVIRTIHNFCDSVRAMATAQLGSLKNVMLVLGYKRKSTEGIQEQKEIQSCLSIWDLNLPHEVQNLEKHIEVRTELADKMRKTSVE
Chain of LRRK2[A2016T] (Q5S007 whole entry A2016T): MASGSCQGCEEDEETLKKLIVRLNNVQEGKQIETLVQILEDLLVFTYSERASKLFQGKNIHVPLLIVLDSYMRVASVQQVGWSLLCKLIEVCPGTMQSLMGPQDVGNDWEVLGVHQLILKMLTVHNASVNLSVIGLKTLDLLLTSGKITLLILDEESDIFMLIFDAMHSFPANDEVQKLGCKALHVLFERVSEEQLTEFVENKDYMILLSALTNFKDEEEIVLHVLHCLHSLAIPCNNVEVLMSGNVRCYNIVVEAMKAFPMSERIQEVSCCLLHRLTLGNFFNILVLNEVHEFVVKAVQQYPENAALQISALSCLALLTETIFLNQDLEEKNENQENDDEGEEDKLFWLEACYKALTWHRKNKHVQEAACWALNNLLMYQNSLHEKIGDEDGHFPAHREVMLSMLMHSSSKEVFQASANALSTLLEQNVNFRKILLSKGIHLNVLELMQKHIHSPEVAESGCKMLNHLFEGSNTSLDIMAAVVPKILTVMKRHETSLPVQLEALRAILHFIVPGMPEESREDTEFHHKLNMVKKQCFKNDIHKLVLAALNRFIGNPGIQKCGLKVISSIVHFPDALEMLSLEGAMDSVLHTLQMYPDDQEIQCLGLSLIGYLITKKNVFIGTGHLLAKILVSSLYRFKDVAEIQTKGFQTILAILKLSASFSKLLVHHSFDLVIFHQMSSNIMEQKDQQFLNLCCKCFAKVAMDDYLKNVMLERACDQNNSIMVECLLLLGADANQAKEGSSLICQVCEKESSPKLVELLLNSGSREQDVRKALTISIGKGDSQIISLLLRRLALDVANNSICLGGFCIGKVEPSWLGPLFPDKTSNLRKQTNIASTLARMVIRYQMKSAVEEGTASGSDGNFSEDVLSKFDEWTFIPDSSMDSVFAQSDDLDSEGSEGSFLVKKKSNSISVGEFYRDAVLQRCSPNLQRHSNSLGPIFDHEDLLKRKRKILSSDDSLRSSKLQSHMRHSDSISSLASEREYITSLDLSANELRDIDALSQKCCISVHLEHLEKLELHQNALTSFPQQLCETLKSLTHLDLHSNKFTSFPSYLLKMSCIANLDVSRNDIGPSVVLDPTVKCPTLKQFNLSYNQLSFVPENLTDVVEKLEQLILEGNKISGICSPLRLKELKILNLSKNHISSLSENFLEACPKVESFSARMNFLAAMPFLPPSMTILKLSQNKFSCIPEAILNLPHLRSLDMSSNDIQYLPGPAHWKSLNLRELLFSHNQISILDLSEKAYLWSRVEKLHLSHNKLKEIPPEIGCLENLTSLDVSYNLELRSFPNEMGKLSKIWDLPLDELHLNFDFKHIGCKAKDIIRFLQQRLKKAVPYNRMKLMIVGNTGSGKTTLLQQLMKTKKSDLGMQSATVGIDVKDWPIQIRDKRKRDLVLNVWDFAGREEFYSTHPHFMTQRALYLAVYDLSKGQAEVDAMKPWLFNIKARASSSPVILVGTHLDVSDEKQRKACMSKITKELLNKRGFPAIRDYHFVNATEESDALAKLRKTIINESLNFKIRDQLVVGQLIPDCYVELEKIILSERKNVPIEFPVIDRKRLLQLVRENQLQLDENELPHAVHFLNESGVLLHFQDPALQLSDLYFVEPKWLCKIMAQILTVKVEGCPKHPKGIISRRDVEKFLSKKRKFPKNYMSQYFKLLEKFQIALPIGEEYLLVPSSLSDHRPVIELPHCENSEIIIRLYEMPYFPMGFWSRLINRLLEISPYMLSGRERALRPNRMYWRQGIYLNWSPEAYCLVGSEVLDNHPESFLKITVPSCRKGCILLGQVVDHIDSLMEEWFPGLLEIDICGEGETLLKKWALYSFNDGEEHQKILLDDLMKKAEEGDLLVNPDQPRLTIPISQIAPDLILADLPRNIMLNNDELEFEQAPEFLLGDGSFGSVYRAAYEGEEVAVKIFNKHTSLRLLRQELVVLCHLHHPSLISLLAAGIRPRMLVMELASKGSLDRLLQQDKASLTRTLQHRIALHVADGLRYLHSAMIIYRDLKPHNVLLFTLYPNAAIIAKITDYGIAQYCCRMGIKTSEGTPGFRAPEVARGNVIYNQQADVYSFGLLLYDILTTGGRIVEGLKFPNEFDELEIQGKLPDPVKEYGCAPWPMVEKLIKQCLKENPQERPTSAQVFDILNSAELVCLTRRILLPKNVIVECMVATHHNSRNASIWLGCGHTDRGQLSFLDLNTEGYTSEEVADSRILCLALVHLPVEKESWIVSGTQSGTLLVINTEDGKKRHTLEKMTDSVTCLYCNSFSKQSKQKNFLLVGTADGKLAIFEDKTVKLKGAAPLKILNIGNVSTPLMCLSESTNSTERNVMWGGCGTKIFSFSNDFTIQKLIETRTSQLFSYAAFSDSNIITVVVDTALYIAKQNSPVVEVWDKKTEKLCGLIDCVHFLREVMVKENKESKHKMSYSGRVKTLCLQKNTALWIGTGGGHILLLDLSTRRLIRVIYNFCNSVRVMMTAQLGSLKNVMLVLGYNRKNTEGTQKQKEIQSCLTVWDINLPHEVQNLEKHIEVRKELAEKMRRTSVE
Chain of GFP-LRRK2[A2016T] (Q5S007 whole entry A2016T): as above

| inhibition at 1 µM (TSSK1) [%] | inhibition at 1 µM (CHK2) [%] | inhibition at 1 µM (PHKã1(PBK)) [%] | Concentration inducing dephosphorylation of Ser910 and 935 (GFP-LRRK2[A2016T]) [µM] | inhibition at 1 µM (CAMKKβ) [%] | inhibition at 1 µM (NUAK1) [%] | Compound | Ser910 and Ser935 dephosphorylation of LRRK2 in kidney and spleen (endogenous LRRK2; oral gavage 10 mg/kg, 10 mg/kg) | Ser910 and Ser935 dephosphorylation of LRRK2 in kidney and spleen (endogenous LRRK2; oral gavage 50 mg/kg) | Inhibition of LRRK2 Ser910 or Ser935 phosphorylation in the brain (endogenous LRRK2; oral gavage 10 or 50 mg/kg) | Inhibition of the A2016T mutant (LRRK2[A2016T]) | Exposure in mouse brains [1] |
| --- | --- | --- | --- | --- | --- | --- | --- | --- | --- | --- | --- |
| > 90 | > 90 | > 90 | 1 to 3 | > 90 | > 90 | COc1cc(N2CCC(N3CCN(C)CC3)CC2)ccc1Nc1ncc(Cl)c(Nc2ccccc2S(=O)(=O)C(C)C)n1 [TAE684, 5-chloro-N4-(2-(isopropylsulfonyl)phenyl)-N2-(2-methoxy-4-(4-(4-methyl-piperazin-1-yl)piperidin-1-yl)phenyl)pyrimidine-2,4-diamine] | slightly lower effect; also recorded: substantially inhibits | complete Ser910 and Ser935 dephosphorylation | no inhibition; also recorded: does not inhibit phosphorylation; also recorded: not in brain | relatively insensitive to the A2016T mutation; also recorded: maintains significant inhibition | – |
| – | – | – | – | – | – | COc1cc(C(=O)N2CCC(N3CCN(C)CC3)CC2)ccc1Nc1ncc2c(n1)N(C)c1ccccc1C(=O)N2C [LRRK2-IN-1] | – | – | – | dramatic resistance | neither compound is able to achieve good exposure in mouse brains |
| – | – | – | – | – | – | COc1cc(N2CCOCC2)ccc1Nc1ncc(F)c(Nc2ccccc2NS(C)(=O)=O)n1 [CZC-25146] | – | – | – | – | neither compound is able to achieve good exposure in mouse brains |
